Here are results for two substances from US20110319340A1, “METHODS FOR TREATING CANCER” (The Board of Regents, The University of Texas System, priority 2008, published 2011).

Type in all cases: cell-based
In test [1] the test system is bone morphogenetic protein 9 (BMP9). Briefly: Gene array analysis of BMP9 expression in human coronary artery endothelial cells. The conditions noted are these: TP508 50 μg/ml or TNF alpha 5 ng/ml, 6 hours. As for the experimental part: Human coronary artery endothelial cells (Cambrex BioScience; Walkersville, Md.) were split into T-75 flasks (BD Falcon) and cultured in endothelial cell basal medium (EBM) with 2% fetal bovine serum (FBS) and growth factors (SingleQuotsTM, Clonetics, San Diego, Calif.) in 5% CO2 at 37° C. […] All procedures and analysis of gene array data were performed in the UTMB Molecular Genomics and MicroArray Core Facility.

The test system of test [2] is human microvascular endothelial cells. Briefly: Phase contrast micrographs of human microvascular endothelial cells co-incubated with KML4A cells. The conditions noted are these: after 22 hours; TP508 50 μg/ml 8 hours pretreatment; thrombin 2 U/ml or TNF alpha 5 ng/ml 16 hours. As for the experimental part:
Human microvascular endothelial cells (Cambrex BioScience; Walkersville, Md.) were plated on 48-well tissue culture plates (BD Falcon) 30,000 cells per well, and cultured in endothelial cell basal medium (EBM) with 2% fetal bovine serum (FBS) and growth factors (SingleQuots™, Clonetics, San Diego, Calif.) in 5% CO2 at 37° C. for three days. […] Photomicrographs were captured at various times after addition of KML4A cells using an inverted Leitz Diavert microscope (original magnification, 200×) equipped with Spot Idea™ digital camera (Diagnostic Instruments, Inc.). Micrographs were taken at the center of each well to avoid any differences in original cell density.

Test [3] has as its system bovine aortic endothelial cells. Briefly: Binding of KML4A colon cancer cells to bovine aortic endothelial cell monolayers. The conditions noted are these: TNF alpha 50 ng/ml for 24 hours; binding after 30 minutes.
Method: In this experiment, bovine aortic endothelial cells (BAEC; Cambrex BioScience; Walkersville, Md.) were plated in 24-well plastic tissue culture plates (BD Falcon™) at a density of 35,000 cells per cm^2 and cultured in endothelial cell basal medium (EBM) with 2% fetal bovine serum (FBS) and growth factors (SingleQuots™, Clonetics, San Diego, Calif.) in 5% CO2 at 37° C. for three days. BAEC monolayer cultures were then pretreated with saline (Control) or TP508 (TP) and then treated with saline or TNF alpha (TNF, 50 ng/ml) for 24 hours. KML4A cells were labeled with fluorescent CytoTracker™ as described in Example 1 above and added to the BAEC monolayers in EBM medium complete with fetal bovine serum and SingleQuot growth factor supplements (30,000 cells per well). After thirty (30) minutes, the cell monlayers were rinsed two times to remove unbound KML4A cells and the monolayers were solubilized using 200 μl of Cell Solubilizing Solution (Cell Biolabs, Inc.). Fluorescence of the solubilized KML4A that had bound to the endothelial cells was measured by transferring aliquots of the solubilized monolayers to 96-well black plates and reading them in a SyQuest BioLabs Fluorescent Plate Reader (480 nm/520 nm). Data is expressed as Relative Fluorescence Units.
Test [4] has as its system snail homolog 3 (SNAI3). Kind of test: Gene array analysis of SNAI3 expression in human coronary artery endothelial cells. The conditions noted are these: TNF alpha 5 ng/ml, 6 hours. As for the experimental part:
(§1) Human coronary artery endothelial cells (Cambrex BioScience; Walkersville, Md.) were split into T-75 flasks (BD Falcon) and cultured in endothelial cell basal medium (EBM) with 2% fetal bovine serum (FBS) and growth factors (SingleQuotsTM, Clonetics, San Diego, Calif.) in 5% CO2 at 37° C. […] After 6 hours of incubation, total RNA was isolated using RNAqueous kits (Ambion, Austin, Tex.) as described by the manufacturer. mRNA samples were reverse-transcribed using Taqman Reverse Transcription Reagents Kits (Applied Biosystems, Inc.) and analyzed by gene array analysis using […] plus 2 chip sets (Affimetrix).

Test [5] relates to melanoma cell adhesion molecule (MCAM). Briefly: Gene array analysis of MCAM expression in human coronary artery endothelial cells. The conditions noted are these: TNF alpha 5 ng/ml, 6 hours. As for the experimental part: as §1, with “(Affimetrix). All procedures and analysis of gene array data were performed in the UTMB Molecular Genomics and MicroArray Core Facility.” for “(Affimetrix).”

The subject of test [6] is metastasis associated in colon cancer 1 (MACC1). Kind of test: Gene array analysis of MACC1 mRNA in human coronary artery endothelial cells. The conditions noted are these: TNF alpha 5 ng/ml, 6 hours. As for the experimental part: as §1, with “(Affimetrix). All procedures and analysis of gene array data were performed in the UTMB Molecular Genomics and MicroArray Core Facility.” for “(Affimetrix).”

In test [7] the test system is human umbilical vein endothelial cells. Kind of test: Transendothelial migration of KML4A tumor cells through human umbilical vein endothelial cell monolayer. The conditions noted are these: thrombin 2 U/ml for 24 hours; migration after 18 hr.
From the text: In this experiment, as in Example 1, KML4A tumor cells derived from a human colon cancer and selected for repeated metastasis to the liver (Morikawa et al., supra) were harvested from established cultures and labeled with fluorescent CytoTracker™ (Cell Biolabs, inc.) and re-established as a uniform cell suspension. Human endothelial cell monolayers were established in transmembrane inserts supplied by Cell Biolabs, Inc., by plating 50,000 human umbilical vein endothelial cells (Cambrex BioScience; Walkersville, Md.) per insert and culturing them in endothelial cell basal medium (EBM) with 2% fetal bovine serum (FBS) and growth factors (SingleQuots™, Clonetics, San Diego, Calif.) in 5% CO2 at 37° C. for three days. […] Fluorescently labeled KML4A tumor cells (35,000 cells per insert in serum-free medium containing 1% bovine serum albumin) were then added to the culture inserts and the inserts placed into wells of a 24-well tissue culture plate (BD Falcon) with 0.5 ml of growth medium containing 10% fetal bovine serum to act as a chemoatractant for the tumor cells. The number of cells migrating through the filter inserts to the filter bottom was determined 18 hr later by measuring the fluorescence of material recovered from the filter bottom using a SyQuest BioLabs Fluorescent Plate Reader (480 nm/529 nm). Data is expressed as Relative Fluorescence Units.
The test system is the same in test [8]. Kind of test: Phase contrast micrographs of human umbilical vein endothelial cells co-incubated with KML4A cells. The conditions noted are these: after 22 hours; thrombin 2 U/ml 16 hours, with or without TP508 50 μg/ml 8 hours pretreatment. An excerpt: Photomicrographs were captured at various times after addition of KML4A cells using an inverted Leitz Diavert microscope (original magnification, 200×) equipped with Spot Idea™ digital camera (Diagnostic Instruments, Inc.). Micrographs were taken at the center of each well to avoid any differences in original cell density.

Consider TNF alpha, for which, in test [1], the “effect on expression of BMP9” value was “does not”. For the same substance, in test [2], the “endothelial cell damage and loss after co-incubation with KML4A cells” value is “damaged and released from the culture substrate”. In test [3], the “increase of binding of KML4A cells” value is “approximately 8 fold”. Moreover, the “effect on endothelial cell expression of SNAI3” value in test [4] is on record as “increases endothelial cell expression of SNAI3”. The “effect on endothelial cell expression of MCAM” value in test [5] was “increases endothelial cell expression of MCAM”. Moreover, the “effect on endothelial cell expression of MACC1 mRNA” value in test [6] was “increases endothelial cell expression of MACC1”.
For the substance Thrombin, in test [2], the “endothelial cell damage and loss after co-incubation with KML4A cells” value was “damaged and released from the culture substrate”. In addition, in test [7], the “effect on KML4A transedothelial migration” value is on record as “increased transedothelial migration”. Besides, the “endothelial cells remaining after co-incubation with KML4A cells” value in test [8] was “few if any remaining endothelial cells”.
